What was measured:
[1] = tested on: TC-71 (Ewing's sarcoma) cells; experiment: Cell proliferation assay, TC-71 (Alamar Blue); assay type: cell-based; details: TC-71 cells, 72 h, read-out: TC71 EC50 range
Procedure: Cell Proliferation Assays
Published scientific data has described that interference with the Insulin-like Growth Factor-1 Receptor (IGF-1R) signaling pathway reduces the proliferation of TC-71 cells. Therefore TC-71 cells served as a positive control cell line for monitoring the activity of compounds against IGF-1R-mediated cell proliferation.
2000 TC-71 cells or 1000 HCT 116 cells were seeded per well in 180 μL IMDM+10% foetal calf serum (FCS)+penicillin/streptomycin into 96-well microtitre plates. The plates were placed in a cell culture incubator (37° C. in a humidified atmosphere of 95% […]/5 CO2) overnight. The following day, serial dilutions of compounds, prepared in duplicates, were transferred onto the cell layers (controls without compound). The cells were cultivated for a further 72 h in the cell culture incubator. 20 μL of Alamar Blue™ (Serotec Ltd, Düsseldorf, Germany) was added to each well and the plates incubated for 7 h in the cell culture incubator.

[2] = biological target: human IGF-1R (Homo sapiens (Human), UniProt P08069); experiment: Cellular IGF-1R-phosphorylation assay (Fibro-hIGF-1R cells); assay type: cell-based; details: IGF-1 stimulated (20 ng/mL, 30 min), 120 min compound incubation, read-out: pIGF-1R EC50 range
Procedure: Cellular IGF-1R-Phosphorylation Assay
The activity of substances against the phosphorylation of IGF-1R in activated cells is measured as follows: mouse fibroblast cells (transfected with human IGF-1R, Fibro-hIGF-1R) are cultivated in standard medium (DMEM, 10% foetal calf serum (FCS, Gibco), 1×MEM Non-Essential Amino Acids (NEAA, Gibco), 7.5% sodium hydrogen carbonate (Gibco) and 0.3 mg/mL Puromycin (Sigma)) in a humid incubator at 37° C. with 5 CO2/95% air.
10000 Fibro-hIGF-1R cells per well in 200 μL of standard medium are seeded into 96-well plates and cultivated overnight. […] 10 μL of substance solution (diluted in serum-reduced medium) is added thereto, and the cells are incubated for a further 120 min in the incubator. The phosphorylation of IGF-1R is activated for 30 min by the addition of IGF-1 (20 ng/mL in serum-reduced medium). All further incubations are carried out at RT. The supernatant is suction filtered from the wells, and the cells are fixed in 100 μL per well of 4% paraformaldehyde (diluted in PBS). The supernatant in the well is suction filtered and the cells are permeabilised for 5 min in 300 μL per well of 0.1% TritonX-100 (diluted in PBS). […] The cells are washed for 5 min with 300 μL per well of PBS with 0.1% TritonX-100 and then incubated for 60 min with 100 μL per well of blocking buffer (PBS with 0.1% TritonX-100 and 5 Bovine Serum Albumin (BSA)). […] The next day the plates are washed for 5 min with 300 μL PBS/0.1% TritonX-100 at RT and then incubated for 60 min with 50 μL per well of the second antibody buffer (1/500 diluted Goat Anti-Rabbit Immunoglobulin-Horseradish Peroxidase (HRP) (Dako) in blocking buffer) at RT. The plates are washed first for 5 min with 300 μL PBS/0.1% TritonX-100 and then for a further 5 min with 300 μL PBS at RT. The plates are developed for 10 min with 100 μL per well of a peroxidase solution (1:1 mixture of TMB Peroxidase Substrate and Peroxidase Solution B from Kirkegaard & Perry Laboratories, Inc.). The reactions are stopped with 100 μL per well of stop solution (1 M phosphoric acid). The absorbance in each well is measured at 450 nm with a SpectraMax Absorbance Reader. EC50 values for inhibiting the phosphorylation of the IGF-1R in activated cells are calculated using the programmes Fifty (Version 2) and GraphPad (Version 3.0).

[3] = biological target: cytoplasmic kinase domain of human IGF-1R (IGF-1R-GST) (Homo sapiens (Human), UniProt P08069); experiment: Insulin-like growth factor-1 receptor (IGF-1R) kinase assay (DELFIA); assay type: biochemical; details: inhibition of IGF-1R-kinase activity, read-out: IGF1R IC50
Procedure: Insulin-Like Growth Factor-1 Receptor (IGF-1R)-Kinase Assay
The kinase activity is measured by DELFIA® assay (dissociation-enhanced lanthanide fluorescence immunoassay, Perkin Elmer). […] Enzyme activity is measured in the presence of substances and a control substance. Poly-glutamate-tyrosine peptide (pEY, Sigma Aldrich) and biotinylated pEY (bio-pEY) are used as reaction substrates.
After 40 min at RT the reactions are stopped with 50 μL of stop solution (250 mM EDTA, 20 mM HEPES pH 7.4). 90 μL from each reaction are transferred onto streptavidin-coated 96-well plates. After 120 min incubation at RT the plates are washed three times with 200 μL phosphate-buffered saline (PBS) per well. The plates are incubated for 60 min with 100 μL of europium-coupled antibody against phospho-tyrosine (diluted 1/2000 in Perkin Elmer DELFIA assay buffer) per well. The plates are washed three times with 200 μL per well of DELFIA washing buffer. 100 μL DELFIA Enhancement Solution (Perkin Elmer) is added to each well, and the plates are incubated for 10 min. The fluorescence signal is measured with a Wallac Victor TRF Reader. IC50 values for the inhibition of the IGF-1R-kinase activity are calculated using the programmes Fifty (Version 2) and GraphPad (Version 3.0).

Chain of cytoplasmic kinase domain of human IGF-1R (IGF-1R-GST) (P08069 964-1367 limits assumed): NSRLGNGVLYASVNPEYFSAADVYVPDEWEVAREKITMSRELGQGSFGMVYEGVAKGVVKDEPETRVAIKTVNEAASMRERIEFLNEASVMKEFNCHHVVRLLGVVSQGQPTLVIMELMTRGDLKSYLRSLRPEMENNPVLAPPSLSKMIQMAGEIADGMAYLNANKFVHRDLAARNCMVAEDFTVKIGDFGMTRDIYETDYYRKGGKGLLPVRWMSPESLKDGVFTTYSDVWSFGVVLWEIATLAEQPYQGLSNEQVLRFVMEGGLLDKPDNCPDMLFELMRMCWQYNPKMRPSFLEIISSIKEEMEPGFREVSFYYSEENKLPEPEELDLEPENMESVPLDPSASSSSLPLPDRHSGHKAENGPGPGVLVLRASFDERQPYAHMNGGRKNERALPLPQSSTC
Chain of human IGF-1R (P08069 31-1367): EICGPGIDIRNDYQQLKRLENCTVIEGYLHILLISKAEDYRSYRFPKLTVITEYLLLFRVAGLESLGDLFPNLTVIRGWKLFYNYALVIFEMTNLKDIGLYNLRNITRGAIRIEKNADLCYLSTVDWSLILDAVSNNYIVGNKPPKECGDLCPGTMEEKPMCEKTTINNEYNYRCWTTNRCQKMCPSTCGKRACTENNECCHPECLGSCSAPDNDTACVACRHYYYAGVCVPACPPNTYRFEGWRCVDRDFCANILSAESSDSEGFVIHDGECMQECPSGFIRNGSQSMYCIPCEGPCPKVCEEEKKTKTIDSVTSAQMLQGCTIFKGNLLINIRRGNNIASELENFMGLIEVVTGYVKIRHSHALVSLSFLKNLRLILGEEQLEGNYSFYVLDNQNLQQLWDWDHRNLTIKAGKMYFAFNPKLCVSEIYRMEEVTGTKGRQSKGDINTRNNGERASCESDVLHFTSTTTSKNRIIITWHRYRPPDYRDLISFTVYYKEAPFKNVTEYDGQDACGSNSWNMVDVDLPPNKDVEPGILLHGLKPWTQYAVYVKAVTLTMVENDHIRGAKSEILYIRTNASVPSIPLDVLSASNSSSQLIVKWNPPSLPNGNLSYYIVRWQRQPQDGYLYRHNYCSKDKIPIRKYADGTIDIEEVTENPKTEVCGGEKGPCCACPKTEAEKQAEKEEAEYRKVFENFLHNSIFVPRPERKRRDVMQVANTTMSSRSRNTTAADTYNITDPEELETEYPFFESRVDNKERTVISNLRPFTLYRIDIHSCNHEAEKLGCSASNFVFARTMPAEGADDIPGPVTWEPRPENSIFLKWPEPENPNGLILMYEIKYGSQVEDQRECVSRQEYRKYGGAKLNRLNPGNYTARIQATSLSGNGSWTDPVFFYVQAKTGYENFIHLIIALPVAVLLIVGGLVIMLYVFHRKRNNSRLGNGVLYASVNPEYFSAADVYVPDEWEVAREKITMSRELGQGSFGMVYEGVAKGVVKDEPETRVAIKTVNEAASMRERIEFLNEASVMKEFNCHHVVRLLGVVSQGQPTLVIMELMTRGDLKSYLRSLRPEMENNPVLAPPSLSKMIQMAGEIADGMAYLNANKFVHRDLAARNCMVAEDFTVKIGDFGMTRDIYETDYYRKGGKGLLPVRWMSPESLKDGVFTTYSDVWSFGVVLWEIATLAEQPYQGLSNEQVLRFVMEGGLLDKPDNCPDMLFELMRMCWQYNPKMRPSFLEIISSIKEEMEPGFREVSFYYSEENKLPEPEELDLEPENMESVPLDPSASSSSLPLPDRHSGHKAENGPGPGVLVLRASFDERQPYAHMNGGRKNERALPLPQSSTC

| EC50 [1] [nM] | EC50 [2] [nM] | IC50 [3] [nM] | Structure (SMILES) |
| --- | --- | --- | --- |
| 10 to 100 | 100 to 600 | 2 | CC(=O)N1CCC(n2cc(Nc3ncc4c(n3)-c3c(nn(C)c3-c3ccc(-c5cnn(C)c5)nc3)CC4)cn2)CC1 [I-180] |
| < 10 | < 10 | 0.05 | COc1cc(N2CCN(C(C)C)CC2)ccc1Nc1ncc2c(n1)-c1c(nn(C)c1-c1ccc(-c3cnn(C)c3)cc1)CC2 [I-172] |
| < 10 | 10 to 100 | 0.39 | CC(=O)N1CCC(n2cc(Nc3ncc4c(n3)-c3c(nn(C)c3Cc3cccc(-c5cnn(C)c5)c3)CC4)cn2)CC1 [I-013] |
| < 10 | < 10 | 0.42 | CC(C)n1cc(-c2ccc(-c3c4c(nn3C)CCc3cnc(Nc5cnn(CCN6CCOCC6)c5)nc3-4)cc2)cn1 [I-023] |
| < 10 | < 10 | 0.22 | COc1cc(C(=O)N2CCOCC2)ccc1Nc1ncc2c(n1)-c1c(nn(C)c1-c1ccc(-c3cnn(C)c3)cc1)CC2 [I-156] |
| < 10 | 10 to 100 | 0.19 | COc1cc(C(=O)NC2CN(C)C2)ccc1Nc1ncc2c(n1)-c1c(nn(C)c1-c1ccc(-c3cnn(C)c3)cc1)CC2 [I-164] |
| < 10 | 10 to 100 | 0.21 | CC(=O)N1CCC(n2cc(Nc3ncc4c(n3)-c3c(nn(C)c3-c3ccc(-c5cnn(C)c5)cc3)CC4)cn2)CC1 [I-051] |
| < 10 | < 10 | 0.08 | COc1cc(N2CCN(C3CCOCC3)CC2)ccc1Nc1ncc2c(n1)-c1c(nn(C)c1-c1ccc(-c3cnn(C)c3)cc1)CC2 [I-171] |
| < 10 |  | 0.23 | Cn1cc(-c2ccc(-c3c4c(nn3C)CCc3cnc(Nc5cnn(C6CCN(S(C)(=O)=O)CC6)c5)nc3-4)cc2)cn1 [I-177] |
| < 10 | < 10 | 0.28 | COCCn1cc(Nc2ncc3c(n2)-c2c(nn(C)c2-c2ccc(-c4cnn(C(C)C)c4)cc2)CC3)cn1 [I-027] |
| < 10 | < 10 | 0.09 | CCn1ccc(Nc2ncc3c(n2)-c2c(nn(C)c2-c2ccc(-c4cnn(CCN5CCC(N(C)C)CC5)c4)cc2)CC3)n1 [I-119] |
| < 10 | < 10 | 0.23 | COc1cc(C(=O)N[C@@H]2CCN(C)C[C@H]2OC)ccc1Nc1ncc2c(n1)-c1c(nn(C)c1-c1ccc(-c3cnn(C)c3)cc1)CC2 [I-163] |
| < 10 | 10 to 100 | 0.16 | CCn1ccc(Nc2ncc3c(n2)-c2c(nn(C)c2-c2ccc(-c4cnn(C5CCNCC5)c4)cc2)CC3)n1 [I-063] |
| < 10 | < 10 | 0.31 | CCn1ccc(Nc2ncc3c(n2)-c2c(nn(C)c2-c2ccc(-c4cnn(C)c4)cc2Cl)CC3)n1 [I-064] |
| < 10 | 10 to 100 | 0.17 | CC(=O)N1CCC(n2cc(Nc3ncc4c(n3)-c3c(nn(C)c3-c3ccc(-c5cnn(C(C)C)c5)cc3)CC4)cn2)CC1 [I-022] |
| 100 to 200 | 100 to 600 | 15 | CCn1ccc(Nc2ncc3c(n2)-c2c(nn(C)c2-c2ccc(-c4c(C)noc4C)cc2)CC3)n1 [I-066] |
| < 10 | < 10 | 0.16 | COc1cc(C(=O)N2CCN(C)CC2)ccc1Nc1ncc2c(n1)-c1c(nn(C)c1-c1ccc(-c3cnn(C)c3)cc1)CC2 [I-129] |
| < 10 | < 10 | 0.61 | COc1cc(C(=O)NC2CCOCC2)ccc1Nc1ncc2c(n1)-c1c(nn(C)c1-c1ccc(-c3cnn(C)c3)cc1)CC2 [I-160] |
| < 10 | 10 to 100 | 0.24 | CN(C)[C@H]1CCN(C(=O)Cn2ccc(Nc3ncc4c(n3)-c3c(nn(C)c3-c3ccc(-c5cnn(C)c5)cc3)CC4)n2)C1 [I-143] |
| < 10 |  | 0.16 | COCCN1CCC(n2cc(Nc3ncc4c(n3)-c3c(nn(C)c3-c3ccc(-c5cnn(C)c5)cc3)CC4)cn2)CC1 [I-175] |
| < 10 | < 10 | 0.09 | CCN1CCN(c2ccc(Nc3ncc4c(n3)-c3c(nn(C)c3-c3ccc(-c5cnn(C)c5)cc3)CC4)c(OC)c2)CC1 [I-170] |
| < 10 |  | 0.34 | CN(C)S(=O)(=O)N1CCC(n2cc(Nc3ncc4c(n3)-c3c(nn(C)c3-c3ccc(-c5cnn(C)c5)cc3)CC4)cn2)CC1 [I-178] |
| < 10 | < 10 | 0.21 | CC(C)n1cc(-c2ccc(-c3c4c(nn3C)CCc3cnc(Nc5cnn(CCN(C)C)c5)nc3-4)cc2)cn1 [I-020] |
| < 10 | < 10 | 2 | COc1cc(N2CCN(S(=O)(=O)N(C)C)CC2)ccc1Nc1ncc2c(n1)-c1c(nn(C)c1-c1ccc(-c3cnn(C)c3)cc1)CC2 [I-176] |
|  | < 10 | 0.26 | COc1cc(C(=O)NC(C)C)ccc1Nc1ncc2c(n1)-c1c(nn(C)c1-c1ccc(-c3cnn(C)c3)cc1)CC2 [I-132] |

Source: patent US9150578B2, “5,8-dihydro-6H-pyrazolo[3,4-h]quinazolines as IGF-1R/IR inhibitors” (Boehringer Ingelheim International GmbH, priority 2012, dated 2015)
